We go through 1 compound from patent US20170275287A1, “NOVEL N2, N4, N7, 6-TETRASUBSTITUTED PTERIDINE-2,4,7-TRIAMINE AND 2, 4, 6, 7-TETRASUBSTITUTED PTERIDINE COMPOUNDS AND METHODS OF SYNTHESIS AND USE THEREOF” (Janus Biotherapeutics, Inc., priority 2014, published 2017).

Where two headings read alike, the source gives them in different places. Bounds are passed on as bounds.

Data set [1] is described as follows: A-B permeability, CaCo-2 cells (CEREP). It counts as in vitro ADME. The settings on record: human, pH 6.5/7.4. The protocol: Preliminary screening measures were conducted by CEREP. All values fall within acceptable limits (Table 5). Solubility assays where performed by CEREP, Seattle, Wash., according to Lipinski, C. A. et al., 1997, Adv. Drug Del. Rev., 46:3-26. Protein binding assays where performed by CEREP, Seattle, Wash., according to Banker, M. J. et al., 2003, J. Pharm. Sci., 92:967-974. Permeability assays where performed by CEREP, Seattle, Wash. according to Hildalgo, I. J., 1998, Gastroenterology, 96:736-749. Metabolic stability assays where performed by CEREP, Seattle, Wash., according to Obach, R. S. et al., 1997, J. Pharmacol. Exp. Ther., 283:46-58. P-glycoprotein inhibition assays where performed by CEREP, Seattle, Wash., according to Polli, J. W. et al., 2001, J. Pharm. Exp. Ther., 299:620-628. Cell viability assays where performed by CEREP, Seattle, Wash., according to Mosmann, T., 1983, J. Immunol. Met. 65:55-62. hERG automated patch clamp assays where performed by CEREP, Seattle, Wash., according to Mathes, C., 2006, Expert Opin. Ther. Targets, 10:230-241.
(In general: Caco-2 cells form a polarised layer with tight junctions and transporters.)

The next data set addresses T1, TLR9 (Rattus norvegicus, UniProt Q6Y1S0).
T1 construct: endogenous in cells; host or cells: live Sprague-Dawley rats
T1 sequence (Q6Y1S0 24-1032): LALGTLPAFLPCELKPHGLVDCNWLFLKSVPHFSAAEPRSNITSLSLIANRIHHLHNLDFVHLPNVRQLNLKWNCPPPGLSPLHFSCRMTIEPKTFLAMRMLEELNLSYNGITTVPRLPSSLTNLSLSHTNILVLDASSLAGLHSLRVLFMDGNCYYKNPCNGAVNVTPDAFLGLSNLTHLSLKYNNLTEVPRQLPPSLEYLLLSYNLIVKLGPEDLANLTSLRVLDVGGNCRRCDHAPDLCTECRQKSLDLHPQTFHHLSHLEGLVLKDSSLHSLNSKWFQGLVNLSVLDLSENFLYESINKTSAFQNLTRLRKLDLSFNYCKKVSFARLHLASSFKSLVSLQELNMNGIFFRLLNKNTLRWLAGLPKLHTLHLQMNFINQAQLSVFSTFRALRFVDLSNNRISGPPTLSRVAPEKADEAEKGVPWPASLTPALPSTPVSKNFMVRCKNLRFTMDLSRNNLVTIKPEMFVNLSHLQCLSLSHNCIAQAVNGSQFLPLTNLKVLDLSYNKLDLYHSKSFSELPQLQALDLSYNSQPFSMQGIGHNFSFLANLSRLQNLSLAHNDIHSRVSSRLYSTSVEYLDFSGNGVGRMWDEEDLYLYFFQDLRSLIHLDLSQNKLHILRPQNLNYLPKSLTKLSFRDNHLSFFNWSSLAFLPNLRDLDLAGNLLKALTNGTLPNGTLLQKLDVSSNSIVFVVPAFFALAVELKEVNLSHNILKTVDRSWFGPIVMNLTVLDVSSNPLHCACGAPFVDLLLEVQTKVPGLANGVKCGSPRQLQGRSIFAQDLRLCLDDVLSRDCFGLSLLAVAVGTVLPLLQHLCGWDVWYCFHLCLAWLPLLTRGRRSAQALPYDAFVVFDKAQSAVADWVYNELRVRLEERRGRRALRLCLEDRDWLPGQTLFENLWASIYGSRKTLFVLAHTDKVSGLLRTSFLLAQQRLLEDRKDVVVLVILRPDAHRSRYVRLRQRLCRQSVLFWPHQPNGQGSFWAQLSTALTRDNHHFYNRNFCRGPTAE
Nature of the data set: PK/PD study: serum cytokines after ODN CpG 1668 challenge. The class given is in vivo, Sprague-Dawley rats. The protocol: The objective of this study was to collect serum following ODN CpG 1668 administration and to determine the pharmacokinetics of JB6121 following oral administration to Sprague-Dawley rats for 7 days. There was a pre-test to establish the appropriate agonist dose for a TLR9 ligand, CpG DNA ODN 1668, in rats using serum IL-12 as the monitored cytokine, groups 1-3, see table 6. Whole blood samples for serum were collected terminally from each animal 3 hours following dosing with ODN CpG 1668. Serum IL-12 was determined by ELISA, data not shown. An agonist dose of lmg/kg was selected for the next phase of the study. For groups administered JB6121 (Groups 4-7), formulations were corrected for base/salt components and not corrected for purity. On the initial day of dose administration, JB6121 formulations were prepared using sterile PBS to the adjusted target dosing concentrations using a factor of 0.8265 to correct for salt content. Dosing was performed as outlined in the following Table 9.
Animals were assigned to four groups (groups 4-7) and administered JB6121 at 0.39, 1.56, 6.25, or 25 mg/kg in a volume of […] once per day by oral gavage for 7 days. On Day 7, two hours following the JB6121 dose (approximate Cmax), ODN CpG 1668 was administered as a single IP dose at 1 mg/kg in a volume of 1 mL/kg. Whole blood samples for bioanalysis and serum samples for serum cytokine analysis were collected by tail vein bleeding or terminally by cardiac puncture at t=2, 3, 4 and 5 h.
Serum IL-12 was monitored at three hours post agonist challenge as a measure of pharmacodynamic JB6121 activity, see FIG. 4. The apparent ID50 post 7-day exposure is approximately 11 ng*h/ml AUC or roughly 0.5 mg/kg dose. […] This would lead to a fourfold greater, 0.5 mg/kg versus 2.4 mg/kg, expected activity in the 7-day rat versus the 1-day mouse. […] We also used multiplex analysis to measure additional cytokines and chemokines in the serum samples. The measurements delivered results for MIP-1a, MIP-2, MCP-1 and IP-10.

Another data set relates to five bacterial strains. Nature of the data set: Non-GLP AMES test (BioRelience). The settings on record: five bacterial strains plus or minus S9 fraction to 5000 μg. The protocol: A non-GLP AMES test study was performed by BioRelience Inc, MD according to Maron, D. M. and Ames, B. N., 1983, Mutation Res., 113:173-215. The test was performed in five bacterial strains plus or minus S9 fraction to 5000 μg.

For the compound `CN1CCN(c2nc(NCCN3CCOCC3)c3nc(Cl)c(NCCN4CCOCC4)nc3n2)CC1` [JB6121, 6-chloro-2-(4-methylpiperazin-1-yl)-N^4,N^7-bis(2-morpholinoethyl)pteridine-4,7-diamine], the apparent permeability from apical to basolateral (Papp A→B) in data set [1] turned out to be 1.2 ×10⁻⁶ cm/s. For the same compound, the ED50 on TLR9 (rat, po, serum IL-12, 3 h post agonist challenge, read-out: apparent ID50 post 7-day exposure, as dose) is about 0.5 mg/kg; on TLR9 (rat, serum IP-10, read-out: ID50, IP-10 (multiplex analysis)), about 2.8 mg/kg. At TLR9 (rat, 1.56 mg/kg dose, PO daily x7 days), this compound displayed an inhibition at 1.56 mg/kg of over 80%. In addition, at TLR9 (serum IL-12, 3 h post agonist challenge), the “apparent ID50 post 7-day exposure, as AUC” value is reported as “approximately 11 ng*h/ml”. The AMES test result in the data set on five bacterial strains is “no toxicity”.

A word on the Papp A→B: it is the apparent permeability from the apical to the basolateral side of a cell layer. For orientation: inhibition means how much of the control response was suppressed. Low values mean a weak effect, high ones a strong effect.
